Measured values published in publication PMC6651611 (Slas Discovery, 2019).

Columns and labels:
CYP130A1 (CYP130A1-BM3R) = CYP130A1 (CYP130A1-BM3R) (Mycobacterium tuberculosis, UniProt P9WPN5); experiment: biochemical
CYP124A1 = CYP124A1 (Mycobacterium tuberculosis, UniProt P9WPP3); format: biochemical
CYP125A1 = CYP125A1 (Mycobacterium tuberculosis, UniProt P9WPP1); format: biochemical
[1] = system: O=C(O)[C@H]1CSC(c2nc3ccc(OCc4ccccc4)cc3s2)=N1; experiment: purified protein
[2] = system: COc1ccc2nc(C3=N[C@@H](C(=O)OCCO)CS3)sc2c1; experiment: purified protein

`CC(=O)N1CCN(c2ccc(OC[C@H]3CO[C@](Cn4ccnc4)(c4ccc(Cl)cc4Cl)O3)cc2)CC1` (racemic) [ketoconazole] gave an IC50 (CYP130A1 (CYP130A1-BM3R)) of 100 ± 20 nM.
`COc1ccc2nc(C3=N[C@@H](C(=O)OCCO)CS3)sc2c1` [Luciferin-ME EGE] was tested, and the “luminescence turnover assay with purified enzyme (S/B 7.3)” value (CYP124A1) was “Luciferin-ME EGE was the only pro-luciferin substrate metabolized by these three cholesterol-metabolizing Mtb CYPs” and the “luminescence turnover assay with purified enzyme (S/B 7.8)” value (CYP125A1) was “Luciferin-ME EGE was the only pro-luciferin substrate metabolized by these three cholesterol-metabolizing Mtb CYPs”.
Work on `Clc1ccc(COC(Cn2ccnc2)c2ccc(Cl)cc2Cl)cc1` (stereo not shown) [econazole] yielded an IC50 (CYP130A1 (CYP130A1-BM3R)) of 50 ± 10 nM.
For `Clc1ccc(COC(Cn2ccnc2)c2ccc(Cl)cc2Cl)c(Cl)c1` (stereo not shown) [miconazole], the IC50 (CYP130A1 (CYP130A1-BM3R)) was 17 ± 3 nM.
For “CYP130A1 (CYP130A1-BM3R) (Mycobacterium tuberculosis H37Rv)”, the Km [1] was 37 ± 2.4 µM, the kcat [1] was 0.000667 ± 1.33e-05 s⁻¹ and the kcat/Km [1] was 18.3 M⁻¹ s⁻¹.
With “CYP142A1 (Mycobacterium tuberculosis H37Rv)” the Km [2] was 270 ± 22 µM and the kcat/Km [2] was 0.00333 M⁻¹ s⁻¹.
